Earlier results on 1 molecule are cited in article PMC7004151, “Synthesis and Structure‐Activity Relationships of N‐(4‐Benzamidino)‐Oxazolidinones: Potent and Selective Inhibitors of Kallikrein‐Related Peptidase 6” (Chemmedchem, 2019).

This data set addresses KLK6. As to conditions: covalent coumarin-based suicide inhibitor ref 20; cited from earlier work.

As for `O=C(Oc1cc(Cl)ccc1Cl)c1cc2cc(Cl)ccc2oc1=O` [Compound 4], the kinact/Ki is 131 ± 13 M⁻¹ s⁻¹.
